Results as given in US12391683B2, “Therapeutic compounds and methods” (Actio Biosciences, Inc., priority 2022, dated 2025).

Columns and labels:
TRPM3 channels = biological target: T1, TRPM3 channels (Homo sapiens, UniProt Q9HCF6); experiment: TRP Family FLIPR Assay, TRPM3; assay type: cell-based; conditions: HEK293 cells (transient)
T1 construct: expressed in transfected cells; host or cells: HEK293 (transient)
Method: (§1) The compound of Example 5 was tested for selectivity against a panel of Human TRP family ion channels in a TRP Family FLIPR Assay as described below. • 1. TRPC3 channels (human TRPC3 variant 1 gene, expressed in HEK293 cells). • 2. TRPC4 channels (human TRPC4 gene, expressed in HEK293 cells). • 3. TRPC5 channels (human TRPC5 gene, expressed in HEK293 cells). • 4. TRPC6 channels (human TRPC6 gene, expressed in HEK293 cells). • 5. TRPM2 channels (human TRPM2 gene, transiently expressed in HEK293 cells). • 6. TRPM3 channels (human TRPM3 gene, transiently expressed in HEK293 cells). • 7. TRPM4 channels (human TRPM4 gene, expressed in CHO cells). • 8. […]
(§2) Data acquisition was performed via the FLIPR Control software supplied with the FLIPR System (MDS-AT) and data was analyzed using Microsoft Excel (Microsoft Corp., Redmond, WA) or GraphPad Prism. […]
(§3) [formula] where Base is the response at low concentrations of test article, Max is the maximum response at high concentrations, xhalf the EC50, or IC50, the concentration of test article producing either half-maximal activation or inhibition, and rate is the Hill coefficient. […] No assumptions about the fit parameters was made; the fit parameters were determined by the algorithm.
(§4) The effect of each test article was evaluated at eight (8) concentrations: 0.003, 0.01, 0.03, 0.1, 0.3, 1, 3 and 10 μM, n≤4 wells/concentration). […]

TRPV3 channels = biological target: T2, TRPV3 channels (Homo sapiens, UniProt Q8NET8); experiment: TRP Family FLIPR Assay, TRPV3; assay type: cell-based; conditions: HEK293 cells (transient)
T2 construct: expressed in transfected cells; host or cells: HEK293 (transient)
T2 sequence (Q8NET8 1-790): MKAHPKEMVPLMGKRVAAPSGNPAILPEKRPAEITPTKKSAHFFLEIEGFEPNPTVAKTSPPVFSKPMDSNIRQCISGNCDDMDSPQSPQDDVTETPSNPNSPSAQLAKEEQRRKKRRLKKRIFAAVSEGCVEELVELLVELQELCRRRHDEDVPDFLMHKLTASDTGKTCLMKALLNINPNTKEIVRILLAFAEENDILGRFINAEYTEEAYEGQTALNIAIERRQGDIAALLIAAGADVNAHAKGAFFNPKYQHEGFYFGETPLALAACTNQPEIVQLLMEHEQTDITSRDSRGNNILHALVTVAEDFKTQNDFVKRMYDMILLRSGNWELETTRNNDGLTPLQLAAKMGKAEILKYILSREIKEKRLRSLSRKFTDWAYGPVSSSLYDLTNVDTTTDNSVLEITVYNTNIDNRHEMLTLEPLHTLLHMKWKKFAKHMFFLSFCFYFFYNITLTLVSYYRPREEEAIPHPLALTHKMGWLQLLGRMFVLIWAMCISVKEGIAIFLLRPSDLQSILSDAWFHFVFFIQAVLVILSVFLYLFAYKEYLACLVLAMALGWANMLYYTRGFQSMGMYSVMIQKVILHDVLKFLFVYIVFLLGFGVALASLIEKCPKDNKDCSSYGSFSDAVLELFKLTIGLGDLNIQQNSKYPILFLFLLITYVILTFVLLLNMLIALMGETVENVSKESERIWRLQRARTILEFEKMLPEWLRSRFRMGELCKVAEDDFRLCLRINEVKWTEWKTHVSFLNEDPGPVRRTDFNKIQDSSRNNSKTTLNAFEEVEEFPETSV
Method: as §1, §2, §3, §4

T1 sequence (Q9HCF6 whole entry): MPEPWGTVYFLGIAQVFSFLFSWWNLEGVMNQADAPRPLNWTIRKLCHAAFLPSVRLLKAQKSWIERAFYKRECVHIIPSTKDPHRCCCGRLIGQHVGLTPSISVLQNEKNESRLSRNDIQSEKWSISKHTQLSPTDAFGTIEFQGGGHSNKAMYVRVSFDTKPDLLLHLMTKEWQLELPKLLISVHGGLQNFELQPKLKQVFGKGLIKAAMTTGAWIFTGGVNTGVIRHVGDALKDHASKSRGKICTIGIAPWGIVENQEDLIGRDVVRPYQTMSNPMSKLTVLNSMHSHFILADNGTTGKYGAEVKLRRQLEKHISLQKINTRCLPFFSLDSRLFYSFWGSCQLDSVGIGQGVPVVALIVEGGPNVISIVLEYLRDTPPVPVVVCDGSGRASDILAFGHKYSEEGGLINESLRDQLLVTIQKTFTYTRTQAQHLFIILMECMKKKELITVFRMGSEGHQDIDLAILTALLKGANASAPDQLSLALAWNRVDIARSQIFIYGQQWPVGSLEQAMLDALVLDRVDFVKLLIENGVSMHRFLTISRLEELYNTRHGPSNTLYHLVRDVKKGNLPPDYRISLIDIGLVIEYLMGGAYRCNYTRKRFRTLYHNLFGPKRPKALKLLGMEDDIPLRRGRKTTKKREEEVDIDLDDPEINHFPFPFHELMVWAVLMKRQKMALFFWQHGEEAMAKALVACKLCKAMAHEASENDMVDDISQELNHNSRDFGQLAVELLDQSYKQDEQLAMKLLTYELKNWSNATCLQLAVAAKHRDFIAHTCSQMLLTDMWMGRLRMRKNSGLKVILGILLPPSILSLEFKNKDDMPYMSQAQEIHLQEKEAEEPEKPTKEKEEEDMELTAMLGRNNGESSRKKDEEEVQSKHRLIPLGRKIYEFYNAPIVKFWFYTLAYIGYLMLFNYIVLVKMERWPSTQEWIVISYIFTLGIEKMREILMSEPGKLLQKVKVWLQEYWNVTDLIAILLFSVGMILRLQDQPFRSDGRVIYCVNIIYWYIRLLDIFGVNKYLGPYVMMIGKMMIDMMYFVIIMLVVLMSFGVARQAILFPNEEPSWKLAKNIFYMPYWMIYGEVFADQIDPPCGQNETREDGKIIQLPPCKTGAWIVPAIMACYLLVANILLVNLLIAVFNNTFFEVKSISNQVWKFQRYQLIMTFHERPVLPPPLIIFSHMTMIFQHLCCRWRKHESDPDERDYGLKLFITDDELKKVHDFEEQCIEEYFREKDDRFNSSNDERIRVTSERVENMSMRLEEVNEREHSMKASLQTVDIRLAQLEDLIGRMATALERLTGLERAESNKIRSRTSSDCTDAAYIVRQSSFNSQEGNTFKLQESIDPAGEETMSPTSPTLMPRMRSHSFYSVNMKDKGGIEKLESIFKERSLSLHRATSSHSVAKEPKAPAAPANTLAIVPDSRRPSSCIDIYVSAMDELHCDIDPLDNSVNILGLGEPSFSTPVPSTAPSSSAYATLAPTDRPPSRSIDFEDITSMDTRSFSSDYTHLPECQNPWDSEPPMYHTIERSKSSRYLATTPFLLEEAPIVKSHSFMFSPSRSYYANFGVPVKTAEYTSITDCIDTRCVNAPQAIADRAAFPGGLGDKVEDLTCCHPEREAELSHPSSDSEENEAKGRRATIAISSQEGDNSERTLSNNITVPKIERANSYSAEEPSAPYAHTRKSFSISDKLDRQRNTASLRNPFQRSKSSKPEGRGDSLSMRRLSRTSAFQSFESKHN

CC(C)(O)c1cnc(N2C[C@@]3(CC[C@@H](F)[C@](C)(Cn4cnc5ccc(C#N)cc54)C3)OC2=O)cn1 (single isomer, unassigned) [Example 5]
> 10 µM: EC50 (TRPM3 channels; agonist mode, vs EMAX of pregnenolone 100 μM, read-out: EC50 hTRPM3) | IC50 (TRPM3 channels; antagonist mode, activated with pregnenolone 30 μM, 0.003-10 μM, read-out: IC50 hTRPM3) | EC50 (TRPV3 channels; agonist mode, vs EMAX of cannabidiol 300 μM, read-out: EC50 hTRPV3) | IC50 (TRPV3 channels; antagonist mode, activated with 2-APB 50 μM, 0.003-10 μM, read-out: IC50 hTRPV3)
